Results published in ChEMBL document CHEMBL1201862, “PubChem BioAssay data set” (2004).
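Briefly, cells in 96-well plates were exposed to five compound concentrations for 48 h, and endpoints were estimated by linear interpolation. GI50 is the concentration that inhibits growth by half.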 Calls of active or inactive are those of the source. Rule as the data show it: active = GI50 up to about 1.1 µM and inactive = higher.

Columns and labels:
Assay in all cases: growth of human tumour cells (NCI), 48 h
SW-620 = test system: SW-620
SN12C = test system: SN12C
KM12 = test system: KM12
ACHN = test system: ACHN
OVCAR-5 = test system: OVCAR-5
A549 = test system: A549
LOX IMVI = test system: LOX IMVI
OVCAR-8 = test system: OVCAR-8
OVCAR-3 = test system: OVCAR-3
UACC-257 = test system: UACC-257
Hs-578T = test system: Hs-578T
NCI-H460 = test system: NCI-H460
DU-145 = test system: DU-145
HCC 2998 = test system: HCC 2998
HOP-62 = test system: HOP-62
SF-295 = test system: SF-295
HCT-15 = test system: HCT-15
NCI-H226 = test system: NCI-H226
RXF 393 = test system: RXF 393
Malme-3M = test system: Malme-3M

## CC(C)C1C(=O)N2CCCC2C2(O)OC(NC(=O)C3C=C4c5cccc6[nH]cc(c56)CC4N(C)C3)(C(C)C)C(=O)N12 (stereo unspecified)
SW-620
  GI50: 30.1 µM (inactive)
SN12C
  GI50: 35.4 µM (inactive)
KM12
  GI50: 20.7 µM (inactive)
ACHN
  GI50: 18.9 µM (inactive)
OVCAR-5
  GI50: 13.2 µM (inactive)
A549
  GI50: 20.7 µM (inactive)
LOX IMVI
  GI50: 18.1 µM (inactive)
OVCAR-8
  GI50: 19.2 µM (inactive)
OVCAR-3
  GI50: 17.9 µM (inactive)
UACC-257
  GI50: 28.7 µM (inactive)
Hs-578T
  GI50: 22.5 µM (inactive)
NCI-H460
  GI50: 19 µM (inactive)
DU-145
  GI50: 35.4 µM (inactive)
HCC 2998
  GI50: 19.7 µM (inactive)
HOP-62
  GI50: 23.4 µM (inactive)
SF-295
  GI50: 28.2 µM (inactive)
HCT-15
  GI50: 20.5 µM

## CCOC(=O)c1cnc2[nH]ccn2c1=O
SW-620
  GI50: > 10 µM (inactive)
SN12C
  GI50: > 10 µM (inactive)
KM12
  GI50: > 10 µM (inactive)
ACHN
  GI50: > 10 µM (inactive)
OVCAR-5
  GI50: > 10 µM (inactive)
A549
  GI50: > 10 µM (inactive)
NCI-H226
  GI50: > 10 µM (inactive)
LOX IMVI
  GI50: > 10 µM (inactive)
OVCAR-8
  GI50: > 10 µM (inactive)
RXF 393
  GI50: > 10 µM (inactive)
OVCAR-3
  GI50: > 10 µM (inactive)
UACC-257
  GI50: > 10 µM (inactive)
Malme-3M
  GI50: > 10 µM (inactive)
Hs-578T
  GI50: > 10 µM (inactive)
NCI-H460
  GI50: > 10 µM (inactive)
DU-145
  GI50: > 10 µM (inactive)
HOP-62
  GI50: > 10 µM (inactive)
SF-295
  GI50: > 10 µM (inactive)
HCT-15
  GI50: > 10 µM

## O=C1CC(c2cccc([N+](=O)[O-])c2)C2(C(=O)NC(=O)NC2=O)C(c2cccc([N+](=O)[O-])c2)C1 (stereo unspecified)
SW-620
  GI50: > 100 µM (inactive)
SN12C
  GI50: > 100 µM (inactive)
KM12
  GI50: 27.5 µM (inactive)
ACHN
  GI50: > 100 µM (inactive)
OVCAR-5
  GI50: > 100 µM (inactive)
A549
  GI50: > 100 µM (inactive)
NCI-H226
  GI50: 58.2 µM (inactive)
LOX IMVI
  GI50: 36.8 µM (inactive)
OVCAR-8
  GI50: > 100 µM (inactive)
RXF 393
  GI50: 13.6 µM (inactive)
OVCAR-3
  GI50: 13.9 µM (inactive)
UACC-257
  GI50: > 100 µM (inactive)
Malme-3M
  GI50: 0.783 µM (active)
Hs-578T
  GI50: > 100 µM (inactive)
NCI-H460
  GI50: > 100 µM (inactive)
DU-145
  GI50: 64.4 µM (inactive)
HOP-62
  GI50: > 100 µM (inactive)
SF-295
  GI50: 34.5 µM (inactive)
HCT-15
  GI50: 70.5 µM

## O=C(c1ccccc1Cl)n1oc2ccccc2c1=O
SW-620
  GI50: 57 µM (inactive)
SN12C
  GI50: > 100 µM (inactive)
KM12
  GI50: 84.1 µM (inactive)
ACHN
  GI50: > 100 µM (inactive)
OVCAR-5
  GI50: > 100 µM (inactive)
A549
  GI50: > 100 µM (inactive)
NCI-H226
  GI50: 67 µM (inactive)
LOX IMVI
  GI50: 72.3 µM (inactive)
OVCAR-8
  GI50: > 100 µM (inactive)
RXF 393
  GI50: 68.7 µM (inactive)
OVCAR-3
  GI50: > 100 µM (inactive)
UACC-257
  GI50: 86.7 µM (inactive)
Malme-3M
  GI50: > 100 µM (inactive)
Hs-578T
  GI50: > 100 µM (inactive)
NCI-H460
  GI50: > 100 µM (inactive)
DU-145
  GI50: > 100 µM (inactive)
HOP-62
  GI50: > 100 µM (inactive)
SF-295
  GI50: > 100 µM (inactive)
HCT-15
  GI50: 85.5 µM

## COc1nc(N)nc2c1n(C)c[n+]2C
SW-620
  GI50: > 100 µM (inactive)
SN12C
  GI50: > 100 µM (inactive)
KM12
  GI50: > 100 µM (inactive)
ACHN
  GI50: > 100 µM (inactive)
OVCAR-5
  GI50: > 100 µM (inactive)
A549
  GI50: > 100 µM (inactive)
NCI-H226
  GI50: > 100 µM (inactive)
LOX IMVI
  GI50: > 100 µM (inactive)
OVCAR-8
  GI50: > 100 µM (inactive)
RXF 393
  GI50: > 100 µM (inactive)
OVCAR-3
  GI50: > 100 µM (inactive)
UACC-257
  GI50: > 100 µM (inactive)
Malme-3M
  GI50: > 100 µM (inactive)
Hs-578T
  GI50: > 100 µM (inactive)
NCI-H460
  GI50: > 100 µM (inactive)
DU-145
  GI50: > 100 µM (inactive)
HOP-62
  GI50: > 100 µM (inactive)
SF-295
  GI50: > 100 µM (inactive)
HCT-15
  GI50: > 100 µM

## O=S(=O)(/N=S(/Nc1ccccc1)C(Cl)Cl)c1ccccc1 (stereo unspecified)
SW-620
  GI50: > 100 µM (inactive)
SN12C
  GI50: > 100 µM (inactive)
KM12
  GI50: > 100 µM (inactive)
ACHN
  GI50: > 100 µM (inactive)
OVCAR-5
  GI50: > 100 µM (inactive)
A549
  GI50: > 100 µM (inactive)
NCI-H226
  GI50: > 100 µM (inactive)
LOX IMVI
  GI50: > 100 µM (inactive)
OVCAR-8
  GI50: > 100 µM (inactive)
RXF 393
  GI50: > 100 µM (inactive)
OVCAR-3
  GI50: > 100 µM (inactive)
UACC-257
  GI50: > 100 µM (inactive)
Malme-3M
  GI50: > 100 µM (inactive)
Hs-578T
  GI50: > 100 µM (inactive)
NCI-H460
  GI50: > 100 µM (inactive)
DU-145
  GI50: > 100 µM (inactive)
HOP-62
  GI50: > 100 µM (inactive)
SF-295
  GI50: > 100 µM (inactive)
HCT-15
  GI50: > 100 µM

## NC(=O)C1CCCN1C(=O)N(CCCl)N=O (stereo unspecified)
SW-620
  GI50: > 100 µM (inactive)
SN12C
  GI50: > 100 µM (inactive)
KM12
  GI50: > 100 µM (inactive)
ACHN
  GI50: > 100 µM (inactive)
OVCAR-5
  GI50: 54.5 µM (inactive)
A549
  GI50: > 100 µM (inactive)
NCI-H226
  GI50: > 100 µM (inactive)
LOX IMVI
  GI50: > 100 µM (inactive)
OVCAR-8
  GI50: > 100 µM (inactive)
OVCAR-3
  GI50: > 100 µM (inactive)
UACC-257
  GI50: > 100 µM (inactive)
Malme-3M
  GI50: > 100 µM (inactive)
Hs-578T
  GI50: > 100 µM (inactive)
NCI-H460
  GI50: > 100 µM (inactive)
DU-145
  GI50: > 100 µM (inactive)
HCC 2998
  GI50: > 100 µM (inactive)
HOP-62
  GI50: > 100 µM (inactive)
SF-295
  GI50: > 100 µM (inactive)
HCT-15
  GI50: > 100 µM
